Key:
[1] = Thermal stability tests (storage); type: physicochemical; conditions: within 4 months at 30° C.
Description: 5 g of solid Cefathiamidine compound with a purity of 98% was added to 100 mL of ethanol at a temperature of 45° C., until being totally dissolved to form a solution, and then 300 mL of isopropanol as a solventing-out agent was dropwise added to the solution within 3 hours; followed by cooling the solution down to 0° C. at a rate of 0.2° C./min; continuing to stir for 3 hours.

[2] = Differential scanning calorimetry, decomposing exothermic peak; type: physicochemical; conditions: 25˜200° C., 10° C./min, nitrogen 80 mL/min
Description: The novel crystalline form of Cefathiamidine compound provided in the present invention is determined by differential scanning calorimeter, and the differential scanning calorimetry thermogram comprises a melting endothermic peak at 169.6±1° C. and a decomposing exothermic peak at 172.2±1° C. as shown in FIG. 6. Test conditions are as follows: temperature range, 25˜200° C., temperature rising rate, 10° C./min, nitrogen protection: 80 mL/min.

[3] = prior-art crystalline forms; cited from earlier work
[4] = Toxicity test, LD50 in mice; conditions: mouse, in vivo
Description: (§1) The novel crystalline form of Cefathiamidine compound of the present invention was tested by toxicity tests and in vitro antibacterial activity tests (taking the crystalline form of Cefathiamidine compound obtained in Example 1 for example).

[5] = Reproductive toxicity test; type: in vivo; conditions: compared with prior art
Description: as §1

another three bacterias = test: In vitro antibacterial activity test; type: cell-based; conditions: against another three bacterias
Description: as §1
(§2) Thus, the antibacterial activity was better than that of any prior art, and was more suitable for clinical application.

enterococcus = test: In vitro antibacterial activity test; type: cell-based; conditions: against enterococcus
Description: as §1, §2

haemophilus influenza = test: In vitro antibacterial activity test; type: cell-based; conditions: against haemophilus influenza
Description: as §1, §2

streptococcus pneumonia = test: In vitro antibacterial activity test; type: cell-based; conditions: Streptococcus pneumoniae; against streptococcus pneumonia
Description: as §1, §2

streptococcus pyogenes = test: In vitro antibacterial activity test; type: cell-based; conditions: against streptococcus pyogenes
Description: as §1, §2

CC(=O)OCC1=C(C(=O)O)N2C(=O)[C@@H](NC(=O)CSC(=NC(C)C)NC(C)C)[C@H]2SC1 [Example 6]
thermal stability (change on storage) [1]: did not make any change | thermal decomposing temperature (decomposing exothermic peak, DSC) [2]: 171.8 °C

CC(=O)OCC1=C(C(=O)O)N2C(=O)[C@@H](NC(=O)CSC(=NC(C)C)NC(C)C)[C@H]2SC1 [crystalline form prepared in CN1495187A]
thermal cracking / decomposition temperature [3]: ≥ 154±1 °C

CC(=O)OCC1=C(C(=O)O)N2C(=O)[C@@H](NC(=O)CSC(=NC(C)C)NC(C)C)[C@H]2SC1.N [Example 1, (6R,7R)-3[(acetyloxy)methyl]-7-[α-(N,N′-diisopropyl-carbamimidoylsulfanyl)-acetylamino]-8-oxo-5-thia-1-aza-bicyclo[4,2,0]oct-2-ene-2-carboxylic acid ammonium salt]
LD50 ([4]; ip, intraperitoneal injection): 1300 ± 200 mg/kg | LD50 ([4]; mice, intravenous injection): 1100 ± 20 mg/kg | reproductive toxicity [5]: lower reproductive toxicity than that of any prior art | MIC90 (another three bacterias): < 7.8 µg/mL | MIC90 (enterococcus): 1.9 µg/mL | MIC90 (haemophilus influenza): 1.8 µg/mL | MIC90 (streptococcus pneumonia): 0.24 µg/mL | MIC90 (streptococcus pyogenes): 0.48 µg/mL | thermal stability (change on storage) [1]: did not make any change | thermal decomposing temperature (decomposing exothermic peak, DSC) [2]: 172.2 °C

CC(=O)OCC1=C(C(=O)O)N2C(=O)[C@@H](NC(=O)CSC(=NC(C)C)NC(C)C)[C@H]2SC1
thermal decomposing temperature (decomposing exothermic peak, DSC) [2]: 172.2±1 °C

CC(=O)OCC1=C(C(=O)O)N2C(=O)[C@@H](NC(=O)CSC(=NC(C)C)NC(C)C)[C@H]2SC1 [crystalline form of Cefathiamidine obtained from acetonitril]
thermal cracking / decomposition temperature [3]: 145.4 °C
